In ChEMBL document CHEMBL1147505, “Efficient and chemoselective N-acylation of 10-amino-7-ethyl camptothecin with poly(ethylene glycol)” (2004):
Residues, ends and D or L forms follow the SMILES beside them. *: point of attachment. X2 = CCc1c2c(nc3ccc(N*)cc13)-c1cc3c(c(=O)n1C2)COC(=O)[C@]3(O)CC; X1 = COCCOC(=O)*

Assays:
[1] = test system: Mus musculus; assay: Survival time of CDF1 mice inoculated with leukemia P388 cells determined after 40 days of intravenous administration of compound at 20 mg/kg on days 1, 5 and 9; type: functional
[2] = organism: Mus musculus; assay: Survival rate was determined as the ratio of mean survival days of treated group of mice to that of control group; type: functional

| Structure (SMILES) | Survival time [1] [days] | T/C [2] [%] |
| --- | --- | --- |
| CCc1c2c(nc3ccc(NC(=O)CNC(=O)[C@H](Cc4ccccc4)NC(=O)[C@H](CC(C)C)NC(=O)CNC(=O)OCCOC)cc13)-c1cc3c(c(=O)n1C2)COC(=O)[C@]3(O)CC (X1-GLFG-X2) | 13 | 170 |
| COc1cccc2c1C(=O)c1c(O)c3c(c(O)c1C2=O)C[C@@](O)(C(=O)CO)C[C@@H]3O[C@H]1C[C@H](N)[C@H](O)[C@H](C)O1 [DOXORUBICIN] | >14 | >183 |
| CCc1c2c(nc3ccc(OC(=O)N4CCC(N5CCCCC5)CC4)cc13)-c1cc3c(c(=O)n1C2)COC(=O)[C@]3(O)CC [IRINOTECAN] | – | 172 |
